Experiments:
Assay type in all cases: biochemical
gliadins = assay: Gliadin degradation control of Example 3 (SDS-PAGE); settings: gliadins 500 μg/ml, enzyme 25 μg/ml, pH 8.0
Method: (§1) FIGS. 15A-15F show effective ATI degradation by subtilisins from B. subtilis (nattokinase). […] ATI (500 μg/ml) incubated with Rmep from R. mucilaginosa (FIG. 15A) or nattokinase from B. subtilis (FIG. 15C) at 50, 25, or 10 μg/ml; FIGS. 15B and 15D, Gliadins (500 μg/ml) incubated with Rmep (FIG. 15B) or nattokinase (FIG. 15D) at 25 μg/ml. FIGS. 15E and 15F, ATIs incubated with control heat inactivated enzymes, Rmep (FIG. 15E) or nattokinase (FIG. 15F).
(§2) ATIs were isolated from wheat cultivars as described^3. They were incubated at a final concentration of 500 μg/ml with 10, 25 or 50 μg/ml Rmep (from R. mucilaginosa), or nattokinase (from B. subtilis). The controls incubations were carried out with heat-inactivated Rmep and nattokinase. Experiments were conducted in 50 mM Tris-HCl, pH 8.0. After 0, 15 min, 30 min, 1 h, and 4 h incubation, 20 μl aliquots were removed, mixed with SDS-sample buffer, heated at 85° C. for 5 min and analyzed by 4-12% SDS PAGE. Proteins were visualized with Coomassie Blue staining.

[1] = system: gliadin-derived FRET substrate QGSFQP; assay: FRET substrate hydrolysis, QGSFQP; settings: substrate 100 μM, Rmep 1 μg/ml, pH 8.0
Method: (§3) FIG. 4D and FIG. 4E are representative graphs of the hydrolysis of gliadin-derived FRET substrates. FRET substrates containing QPQLPY (SEQ ID NO: 22), PQPQPQ (SEQ ID NO: 23) and QGSFQP (SEQ ID NO: 24), each at 100 μM, were incubated with Rmep […] and subtilisin A (FIG. 4E), at 1 μg/ml and 0.5 μg/ml, respectively. Controls were boiled Rmep and subtilisin A incubated with PQPQLPY (+) (SEQ ID NO: 25), PQPQPQ (⋄) (SEQ ID NO: 23) and QGSFQP (*) (SEQ ID NO: 24) (no activity, baseline).
(§4) FRET substrate hydrolysis—Three fluorescence resonance energy transfer (FRET) substrates comprising the hexapeptides QPQLPY (SEQ ID NO: 22), PQPQPQ (SEQ ID NO: 23) and QGSFQP (SEQ ID NO: 24) were synthesized with at the N-terminus the HILYTE FLUOR™ 488 label, and at the C-terminus with K(QXL520) (Anaspec, Fremont, Calif.). Rmep (1 μg/ml) and subtilisin A (0.5 μg/ml) were incubated with the substrates (100 μM) in 50 mM TrisHCl pH 8.0. Samples were incubated at 37° C. and fluorescence increase, indicating hydrolysis, was measured every 5 min for 30 min, and every 10 min for the next 30 min, at λex 485 nm and λem 520 nm, using a Genios microtiter plate reader in the kinetic mode.

wheat ATI proteins = assay: Degradation of amylase-trypsin inhibitors (SDS-PAGE); settings: ATIs 500 μg/ml, enzyme 10, 25 or 50 μg/ml, pH 8.0, up to 4 h
Method: as §1, §2

[2] = system: gliadin-derived FRET substrate QPQLPY; assay: FRET substrate hydrolysis, QPQLPY; settings: substrate 100 μM, Rmep 1 μg/ml, pH 8.0, 37° C.
Method: as §3, §4

For “Rmep: DEAE pooled fraction F2 of R. mucilaginosa ATCC 25296 extract with highest gluten-degrading enzyme activity; contains subtilisins C6R5V9_9MICC and C6R5W1_9MICC”, the degradation of gliadins (gliadins) was “degraded”, the “hydrolysis of FRET substrate QGSFQP” value [1] was “not cleaved” and the “degradation of wheat ATI proteins” value (wheat ATI proteins) was “resistant to degradation”. For the same substance, the “hydrolysis of FRET substrate QPQLPY” value [2] was “rapidly hydrolyzed”.
